Earlier results, collected in patent publication US20260345619A1 (Principia Biopharma Inc., priority 2023, published 2026).
Read-outs that look alike come from different tables or passages of the source.

Tests used:
[1] = system: 251 kinases sharing a common cysteine in their active site; settings: 1 μM; panel of 251 kinases; cited from earlier work
[2] = cited from earlier work

Compound: C=CC(=O)N1CCC[C@@H](n2nc(-c3ccc(Oc4ccccc4)cc3)c3c(N)ncnc32)C1 [ibrutinib, reference compound]
- number of kinases inhibited (>90% inhibition) [1]: 21 kinases

Compound: omalizumab: anti-immunoglobulin E (IgE) agent
- black box warning ([2]; in vivo): black box warning of potential for anaphylaxis
- efficacy ([2]; severe, corticosteroid-refractory allergy-induced asthma): has shown efficacy

Compound: benralizumab: anti-IL5 receptor
- efficacy ([2]; severe asthma, eosinophilic phenotype): have shown efficacy
